Patent US5187165A, “Memory enhancing and analgesic 1,2,3a,8,8a-hexahydro-3a,8(and 1,3a,8)-di(and tri)methylpyrrolo[2,3-b]indoles” (priority 1988, dated 1993)
Counter-ions that a name gives are not always drawn. Like-named read-outs stand apart in the source and are kept apart here.

Columns and labels:
[1] = tested on: pressure stress by artery clip on tail; test: Modified Haffner's Analgesia; type: in vivo, mice; settings: sc; for ANALGESIC ACTIVITY (ED50), Modified Haffner's Analgesia: mice, peak time of drug activity; for ED50: Mus musculus, read-out: ANALGESIC ACTIVITY (ED50), Modified Haffner's Analgesia, mice, sc, peak time of drug activity
From the text: The latter assay is used to evaluate analgesic activity by measuring drug-induced changes in the sensitivity of mice to pressure stress by placing an artery clip (21/2 inches long) on their tail. The procedure used is a modification of the test developed by Haffner, Dtsch. Med. Wschr., 55, 731 (1929), and it is described below.
Male mice (Charles River, CD-1) from 18-30 grams are used for the test. An artery clip is applied to the root of the tail of a mouse (approximately 1/2 inch from the body) to induce pain. The animal quickly responds to this noxious stimuli by biting the clip or the location of the clip. This reaction time, the interval between stimulus onset and response, is recorded in 1/10-second increments by a stop watch.
For a time response, the screening dose (25 mg/kg) is administered subcutaneously (10 ml/kg) to the animal receiving food and water ad libitum before testing. Animals receiving the compound orally are fasted 18-24 hours before drug administration. Drug to be tested is prepared with distilled water and if insoluble, one drop of a surfactant is added.
Twenty-eight animals (seven/group) are administered the drug 15, 30, 45 and 60 minutes prior to testing.
The cut-off time (CO) is determined by taking the (x) average +(3) standard (SD) deviations of the combined response latencies of the control mice in all time periods.
Any reaction time, in subsequent drug tests, which is greater than the CO (for the same time period) therefore exceeds 99% of a normal Gaussian distribution and is called "positive response" indicative of analgesic activity. A time response indicates the period of greatest analgesic effect after dosing. The ED50 is determined at the peak time of drug activity. A minimum of three dose groups are used. ED50 's are calculated using computer analysis.

[2] = tested on: 2-phenyl-1,4-benzoquinone-induced writhing; test: 2-phenyl-1,4-benzoquinone-induced writhing (PQW) test; type: in vivo; settings: mice; for ED50: Mus musculus, read-out: ANALGESIC ACTIVITY (ED50), PQW
From the text: Compounds I of the present invention are also useful as analgesic agents due to their ability to alleviate pain in mammals. […] Exptl. Biol. Med., 95,729 (1957)] and in modified Haffner's analgesia.

[3] = biological target: T1, acetylcholinesterase (Brain AChE) (Rattus norvegicus, UniProt P37136); test: In Vitro Inhibition of Acetylcholinesterase Activity in Rat Striatum; type: biochemical
T1 construct: corpora striata dissected free, weighed and homogenized in 19 volumes; from tissue; host or cells: corpora striata of male Wistar rats, crude homogenate in phosphate buffer
T1 sequence (P37136 32-614): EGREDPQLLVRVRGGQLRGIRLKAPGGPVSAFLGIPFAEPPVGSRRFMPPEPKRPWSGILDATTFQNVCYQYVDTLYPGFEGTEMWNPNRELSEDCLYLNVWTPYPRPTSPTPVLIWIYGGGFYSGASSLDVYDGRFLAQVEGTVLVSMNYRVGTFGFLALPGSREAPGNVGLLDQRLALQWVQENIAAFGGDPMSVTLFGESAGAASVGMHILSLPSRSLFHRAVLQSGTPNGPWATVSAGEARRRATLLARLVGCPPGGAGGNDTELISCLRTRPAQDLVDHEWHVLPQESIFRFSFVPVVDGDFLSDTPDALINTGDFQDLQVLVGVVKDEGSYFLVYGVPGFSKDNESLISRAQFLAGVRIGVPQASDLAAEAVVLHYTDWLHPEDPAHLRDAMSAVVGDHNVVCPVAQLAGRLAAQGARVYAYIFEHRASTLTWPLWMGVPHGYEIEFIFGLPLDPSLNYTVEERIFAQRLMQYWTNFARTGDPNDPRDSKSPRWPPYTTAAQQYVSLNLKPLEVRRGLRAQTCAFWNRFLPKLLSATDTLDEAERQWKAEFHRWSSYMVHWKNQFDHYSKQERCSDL
From the text: (§1) Cholinesterases are found throughout the body, both in the brain and in serum. However, only brain acetylcholinesterase (AChE) distribution is correlated with central cholinergic innervation. […] We have determined in vitro inhibition of acetylcholinesterase activity in rat striatum and in vitro inhibition of butrylcholinesterase activity in human serum according to the methods described below.
The method described below was used in this invention for assaying cholinesterase activity. This is a modification of the method of Ellman et al., Biochem. Pharmacol. 7, 98 (1961).
1. 0.05M Phosphate buffer, pH 7.2
(§2) (a) 9.9 mg 5,5-dithiobisnitrobenzoic acid (DTNB) (0.25 mM)
(b) 99 mg s-acetylthiocholine chloride (5 mM)
(§3) (c) q.s. to 100 ml with 0.05M phosphate buffer, pH 7.2 (reagent 1)
Male Wistar rats are decapitated, brains rapidly removed, corpora striata dissected free, weighed and homogenized in 19 volumes (approximately 7 mg protein/ml) of 0.05M phosphate buffer, pH 7.2 using a Potter-Elvehjem homogenizer. A 50 microliter aliquot of the homogenate is added to 50 microliter vehicle of various concentrations of the test drug and preincubated for 10 minutes at room temperature.
1. For routine IC50 determinations the Abbott Bichromatic Analyzer, ABA-100, is used to determine acetylcholinesterase activity.
Incubation temperature: 30° C.
Following the 10 minute preincubation of the tissue (enzyme) with the inhibitor, the samples are mixed with the substrate chromogen buffer by the ABA-100. Using the indicated instrument settings the ABA-100 automatically reads the color reaction and prints out the results in enzyme units after 15 minutes.
2. The enzyme activity can also be measured with Gilford 250 spectrophotometer. This method is used for more accurate kinetic measurments.
Reagents are added to the reference and sample side of a split curvette as follows.
The uninhibited activity of the enzyme (tissue homogenate) is first determined. Test drugs are made up in a suitable solvent and added in suitable dilutions to the buffer vehicle. The reaction rate is determined by the slope of the recorded absorbance change. The actual rate (moles/liter/min) can be calculated as described in the following formula
rate(moles/liter/min)=slope/(1.36×10^4).

[4] = tested on: norepinephrine uptake; type: biochemical; settings: rat brain synaptosomes, 50 nM 3H-NE, 37° C., 5 min; read-out: Reuptake Inhibition of neurotransmitters, Norepinephrine
[5] = biological target: T2, butyrylcholinesterase (Serum AChE) (Homo sapiens, UniProt P06276); test: In Vitro Inhibition of Butyrylcholinesterase Activity in Human Serum; type: biochemical
T2 construct: A vial of lyophilized human serum; purchased Biodynamics, Houston, Tex; (Precilip); host or cells: lyophilized human serum, reconstituted in water; enzyme not purified
T2 sequence (P06276 29-602): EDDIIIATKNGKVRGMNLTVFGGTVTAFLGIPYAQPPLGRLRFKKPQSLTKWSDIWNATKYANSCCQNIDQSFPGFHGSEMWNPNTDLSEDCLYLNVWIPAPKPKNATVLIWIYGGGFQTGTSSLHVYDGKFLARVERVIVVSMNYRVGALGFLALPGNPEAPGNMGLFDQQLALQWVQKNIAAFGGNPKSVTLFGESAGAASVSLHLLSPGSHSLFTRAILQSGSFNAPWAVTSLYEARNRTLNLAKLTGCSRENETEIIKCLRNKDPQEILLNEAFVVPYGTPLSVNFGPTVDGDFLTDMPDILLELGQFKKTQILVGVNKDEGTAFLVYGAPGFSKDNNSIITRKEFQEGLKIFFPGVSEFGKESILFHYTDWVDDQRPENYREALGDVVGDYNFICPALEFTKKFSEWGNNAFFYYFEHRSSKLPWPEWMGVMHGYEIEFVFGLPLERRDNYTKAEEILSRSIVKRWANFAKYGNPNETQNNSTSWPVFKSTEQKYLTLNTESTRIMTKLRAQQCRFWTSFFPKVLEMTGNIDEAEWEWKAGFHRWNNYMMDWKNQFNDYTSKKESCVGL
From the text: as §1
This assay can be used in conjunction with the acetylcholinesterase assay to determine the enzyme selectivity of various chloinesterase inhibitors.
Butyrylcholinesterase (BChE), which is sometimes called pseudocholinesterase, preferentially hydrolyzes butyrylcholine. This enzyme is found in the highest amounts in serum, but its physiological role is not known.
as §2
(b) 113 mg s-butyrylthiochloine chloride (5 mM)
as §3
A vial of lyophilized human serum (Precilip, Biodynamics, Houston, Tex. is reconstituted in 3 ml of distilled water. A 10 microliter aliquot of this suspension is added to 90 microliter of the vehicle or various concentrations of the test drug and preincubated for 10 minutes at room temperature.
Substantially the same procedure is used as described above in Section C of the Procedure used for determining the inhibition of acetylcholinsterase activity.

[6] = tested on: scopolamine-induced memory deficit; test: Dark Avoidance Assay (scopolamine induced memory deficit reversal); type: in vivo, mice; settings: Mus musculus, sc, 24 h, read-out: % of Animals with Scopolamine Induced Memory Deficit Reversal
Protocol: In this assay mice are tested for their ability to remember an unpleasant stimulus for a period of 24 hours. A mouse is placed in a chamber that contains a dark compartment; a strong incandescent light drives it to the dark compartment, where an electric shock is administered through metal plates on the floor. The animal is removed from the testing apparatus and tested again, 24 hours later, for the ability to remember the electric shock.
If scopolamine, an anticholinergic that is known to cause memory impairment, is administered before an animal's initial exposure to the test chamber, the animal re-enters the dark compartment shortly after being placed in the test chamber 24 hours later. This effect of scopolamine is blocked by an active test compound, resulting in a greater interval before re-entry into the dark compartment.
The results for an active compound are expressed as the percent of a group of animals in which the effect of scopolamine is blocked, as manifested by an increased interval between being placed in the test chamber and re-entering the dark compartment.

Structure (SMILES): CN1CC[C@@]2(C)c3cc(O)cc(Br)c3N(C)[C@@H]12 (relative stereo) [7-bromo-1,2,3,3a,8,8a-hexahydro-1,3a,8-trimethylpyrrolo[2,3-] [7-Bromo-1,2,3,3a,8,8a-hexahydro-1,3a,8-trimethylpyrrolo[2,3-b]indol-5-ol]
- ANALGESIC ACTIVITY (ED50), Modified Haffner's Analgesia [1]: 0.22 mg/kg
- ANALGESIC ACTIVITY (ED50), PQW ([2]; po): 0.33 mg/kg
- ANALGESIC ACTIVITY (ED50), PQW ([2]; sc): 0.17 mg/kg

Structure (SMILES): Cc1cc(O)cc2c1N(C)[C@H]1N(C)CC[C@@]21C (relative stereo) [(3aS-cis)-1,2,3,3a,8,8a-Hexahydro-1,3a,7,8-tetramethylpyrrolo[2,3-b]indol-5-ol]
- ED50 [1]: 0.31 mg/kg
- ED50 ([2]; sc, sc): 0.22 mg/kg

Structure (SMILES): CN1CC[C@@]2(C)c3cc(OC(=O)C(C)(C)C)cc(Br)c3N(C)[C@@H]12.Cl (relative stereo) [(3aS-cis)-7-Bromo-1,2,3,3a,8,8a-hexahydro-1,3a,8-trimethylpyrrolo[2,3-b]indol-5-ol, trimethylacetate hydrochloride]
- ED50 [1]: 0.6 mg/kg
- ED50 ([2]; sc, sc): 0.8 mg/kg

Structure (SMILES): CN1CC[C@@]2(C)c3cc(O)cc(Br)c3N(C)[C@@H]12 (relative stereo) [(3aS-cis)-7-Bromo-1,2,3,3a, 8,8a-hexahydro-1,3a,8-trimethylpyrrolo[2,3-b]indol-5-ol]
- ED50 ([2]; po, po): 0.36 mg/kg

Structure (SMILES): CN1CC[C@@]2(C)c3cc(O)cc(Br)c3N(C)[C@@H]12 (relative stereo) [(3aS-cis)-7-bromo-1,2,3,3a,8,8a-hexahydro-1,3a,8-trimethylpy] [(3aS-cis)-7-Bromo-1,2,3,3a, 8,8a-hexahydro-1,3a,8-trimethylpyrrolo[2,3-b]indol-5-ol]
- ANALGESIC ACTIVITY (ED50), Modified Haffner's Analgesia [1]: 0.55 mg/kg
- ANALGESIC ACTIVITY (ED50), PQW ([2]; sc): 0.041 mg/kg

Structure (SMILES): C=CCN1CCC2(C)c3cc(O)ccc3N(C)C12 (centres unmarked) [1,2,3,3a,8,8a-Hexahydro-3a,8-dimethyl-1-(2-propenyl)-pyrrolo[2,3-b]indol-5-ol salicylate]
- ED50 [1]: 2.56 mg/kg
- ED50 ([2]; sc, sc): 3.9 mg/kg

Structure (SMILES): CCN1CCC2(C)c3cc(O)cc(Br)c3N(C)C12 (centres unmarked) [7-Bromo-1-ethyl-1,2,3,3a,8,8a-hexahydro-3a,8-dimethylpyrrolo[2,3-b]indol-5-ol salicylate]
- ED50 [1]: 1.94 mg/kg
- ED50 ([2]; sc, sc): 2.52 mg/kg

Structure (SMILES): CNC(=O)Oc1cc(C)c2c(c1)[C@]1(C)CCN(C)[C@@H]1N2C [(3aS-cis)-1,2,3,3a,8,8a-Hexahydro-1,3a,7,8-tetramethylpyrrolo[2,3-b]indol-5-ol, methyl carbamate ester]
- IC50 [3]: 0.012 µM

Structure (SMILES): CC(=O)Oc1cc([N+](=O)[O-])c2c(c1)[C@]1(C)CCN(C)[C@@H]1N2C [(3aS-cis)-1,2,3,3a,8,8a-Hexahydro-1,3a,8-trimethyl-7-nitropyrrolo[2,3-b]indol-5-ol acetate fumarate]
- ED50 [1]: 3.6 mg/kg
- ED50 ([2]; sc, sc): 1.5 mg/kg

Structure (SMILES): CCC1CCC(NC(=O)Oc2ccc3c(c2)[C@]2(C)CCN(C)[C@@H]2N3C)CC1 (stereo partly drawn) [(3aS-cis)-1,2,3,3a,8,8a-Hexahydro-1,3a,8-trimethylpyrrolo[2,3-b]indol-5-ol,4-ethylcyclohexyl carbamate ester]
- IC50 [4]: 2.6 µM

Structure (SMILES): CN1CC[C@@]2(C)c3cc(OC(=O)NC45CC6CC(CC(C6)C4)C5)ccc3N(C)[C@@H]12 [(3aS-cis)-1,2,3,3a,8,8a-Hexahydro-1,3a,8-trimethylpyrrolo[2,3-b]indol-5-ol,(1-adamantyl)carbamate ester]
- IC50 [5]: > 100 µM
- responders at 1.25 mg/kg [6]: 27%
- IC50 [3]: 3.05 µM

Structure (SMILES): CN1CC[C@@]2(C)c3cc(OC(=O)N4CC5CCC(CC5)C4)ccc3N(C)[C@@H]12 [(3aS-cis)-1,2,3,3a,8,8a-Hexahydro-1,3a,8-trimethylpyrrolo[2,3-b]indol-5-ol,[3-[3-azabicyclo[3.2.2]nonyl]]carbamate ester fumarate]
- IC50 [5]: > 1000 µM
- responders at 5 mg/kg [6]: 33%
- IC50 [3]: 0.84 µM

Structure (SMILES): CN1CC[C@@]2(C)c3cc(OC(=O)NC4CCCCCCCCCCC4)ccc3N(C)[C@@H]12 [(3aS-cis)-1,2,3,3a,8,8a-Hexahydro-1,3a,8-trimethylpyrrolo[2,3-b]indol-5-ol,cyclododecyl carbamate ester]
- IC50 [5]: > 1000 µM
- IC50 [3]: 0.41 µM

Structure (SMILES): CCN(CC)C(=O)Oc1cc2c(cc1Br)N(C)[C@H]1N(C)CC[C@@]21C [(3aS-cis)-6-bromo-1,2,3,3a,8,8a-hexahydro-1,3a,8-trimethylpyrrolo[2,3-b]indol-5-ol, N,N-diethyl carbamate ester]
- responders at 5 mg/kg [6]: 40%

Structure (SMILES): CN1CC[C@@]2(C)c3cc(O)ccc3N(C)[C@@H]12 [eseroline salicylate, reference compound]
- ED50 [1]: 0.18 mg/kg
- ED50 ([2]; sc, sc): 0.52 mg/kg
